Test results as given in patent publication US20200347043A1, “MODULATORS OF THE INTEGRATED STRESS PATHWAY” (Calico Life Sciences LLC, priority 2019, published 2020).

system: HEK293T cells carrying the ATF4 luciferase reporter; assay: ATF4-Luc assay (in vitro model of VWMD); type: cell-based, human; conditions: 1 μg/mL tunicamycin, 7 hours, One Glo luminescence
Description: In order to test exemplary compounds of the invention in a cellular context, a stable VWMD cell line was first constructed. The ATF4 reporter was prepared by fusing the human full-length ATF4 5′-UTR (NCBI Accession No. BC022088.2) in front of the firefly luciferase (FLuc) coding sequence lacking the initiator methionine as described in Sidrauski et al (eLife 2013). The construct was used to produce recombinant retroviruses using standard methods and the resulting viral supernatant was used to transduce HEK293T cells, which were then subsequently selected with puromycin to generate a stable cell line.
HEK293T cells carrying the ATF4 luciferase reporter were plated on polylysine coated 384-well plates (Greiner Bio-one) at 30,000 cells per well. Cells were treated the next day with 1 μg/mL tunicamycin and 200 nM of a compound of Formula (I) for 7 hours. Luminescence was measured using One Glo (Promega) as specified by the manufacturer. Cells were maintained in DMEM with L-glutamine supplemented with 10% heat-inactivated FBS (Gibco) and Antibiotic-Antimycotic solution (Gibco).
Table 4 below summarizes the EC50 data obtained using the ATF4-Luc assay for exemplary compounds of the invention.

Row | Structure (SMILES) | EC50 [nM]
1 | O=C(NC12CC(N3CCC(c4ccc(Cl)cc4)C3=O)(C1)C2)[C@H]1C[C@@H](O)c2cc(Cl)ccc2O1 (single isomer, unassigned) [Compound 226, (2R,4R)-6-chloro-N-{3-[(3S*)-3-(4-chlorophenyl)-2-oxopyrrolidin-1-yl]bicyclo[1.1.1]pentan-1-yl}-4-hydroxy-3,4-dihydro-2H-1-benzopyran-2-carboxamide] | 500 to 2000

same assay, conditions: Homo sapiens, HEK-293T, 1 μg/mL tunicamycin, 7 hours, One Glo luminescence

Row | Structure (SMILES) | EC50 [nM]
2 | O=C(NC12CC(n3cnc(-c4ccc(F)c(F)c4)c3)(C1)C2)[C@H]1C[C@@H](O)c2cc(Cl)ccc2O1 (racemic) [Compound 149, rac-(2R,4R)-6-chloro-N-{3-[4-(3,4-difluorophenyl)-1H-imidazo-1-yl]bicyclo[1.1.1]pentan-1-yl}-4-hydroxy-3,4-dihydro-2H-1-benzopyran-2-carboxamide] | < 10
3 | O=C(NC12CC(c3nnc([C@H]4C[C@@H](OC(F)(F)F)C4)o3)(C1)C2)[C@H]1C[C@@H](O)c2cc(Cl)ccc2O1 (racemic) [Compound 159, rac-(2R,4R)-6-chloro-4-hydroxy-N-(3-{5-[(1s,3S)-3-(trifluoromethoxy)cyclobutyl]-1,3,4-oxadiazol-2-yl}bicyclo[1.1.1]pentan-1-yl)-3,4-dihydro-2H-1-benzopyran-2-carboxamide] | 10 to 50
4 | O=C(NC12CCC(c3nnc([C@H]4C[C@@H](OC(F)(F)F)C4)o3)(C1)C2)[C@H]1C[C@@H](O)c2cc(Cl)ccc2O1 (racemic) [Compound 160, rac-(2R,4R)-6-chloro-4-hydroxy-N-(4-{5-[(1s,3S)-3-(trifluoromethoxy)cyclobutyl]-1,3,4-oxadiazol-2-yl}bicyclo[2.1.1]hexan-1-yl)-3,4-dihydro-2H-1-benzopyran-2-carboxamide] | 50 to 250
5 | O=C(N[C@@H]1CC[C@@H](c2nnc([C@H]3C[C@@H](OC(F)(F)F)C3)o2)OC1)C1CC(O)c2cc(Cl)ccc2O1 (mixture of isomers) [Compound 161, (2RS,4RS)-6-chloro-4-hydroxy-N-[(3R,6)-6-{5-[cis-3-(trifluoromethoxy)cyclobutyl]-1,3,4-oxadiazol-2-yl}oxan-3-yl]-3,4-dihydro-2H-1-benzopyran-2-carboxamide] | < 10
6 | O=C(COc1ccc(Cl)c(F)c1)NC12CC(c3nnc([C@H]4C[C@@H](O)c5cc(Cl)ccc5O4)o3)(C1)C2 (racemic) [Compound 166, 2-(4-chloro-3-fluorophenoxy)-N-(3-{5-[rac-(2R,4R)-6-chloro-4-hydroxy-3,4-dihydro-2H-1-benzopyran-2-yl]-1,3,4-oxadiazol-2-yl}bicyclo[1.1.1]pentan-1-yl)acetamide] | < 10
7 | O=C(COc1ccc(Cl)c(F)c1)N[C@H]1C[C@H]2O[C@@H]1C[C@@H]2c1nnc([C@H]2C[C@@H](OC(F)(F)F)C2)o1 (racemic) [Compound 168, 2-(4-chloro-3-fluorophenoxy)-N-[rac-(1R,2S,4R,5S)-5-{5-[cis-3-(trifluoromethoxy)cyclobutyl]-1,3,4-oxadiazol-2-yl}-7-oxabicyclo[2.2.1]heptan-2-yl]acetamide] | 250 to 500
8 | O=C(NC12CCC(c3nnc([C@H]4C[C@@H](OC(F)(F)F)C4)o3)(CC1)CC2)[C@H]1C[C@@H](O)c2cc(Cl)ccc2O1 (racemic) [Compound 171, rac-(2R,4R)-6-chloro-4-hydroxy-N-(4-{5-[cis-3-(trifluoromethoxy)cyclobutyl]-1,3,4-oxadiazol-2-yl}bicyclo[2.2.2]octan-1-yl)-3,4-dihydro-2H-1-benzopyran-2-carboxamide] | < 10
9 | O=C(N[C@@H]1C[C@@H]2O[C@H]1C[C@H]2c1nnc([C@H]2C[C@@H](OC(F)(F)F)C2)o1)[C@@H]1C[C@@H](O)c2cc(Cl)ccc2O1 (racemic) [Compound 185, (2S,4R)-6-chloro-4-hydroxy-N-[(1RS,2SR,4RS,5SR)-5-{5-[cis-3-(trifluoromethoxy)cyclobutyl]-1,3,4-oxadiazol-2-yl}-7-oxabicyclo[2.2.1]heptan-2-yl]-3,4-dihydro-2H-1-benzopyran-2-carboxamide] | > 2000
10 | O=C(N[C@@H]1C[C@@H]2O[C@H]1C[C@H]2c1nnc([C@H]2C[C@@H](OC(F)(F)F)C2)o1)[C@@H]1C[C@H](O)c2cc(Cl)ccc2O1 (racemic) [Compound 186] | 10 to 50
11 | O=C(N[C@@H]1CC[C@@H](c2nnc([C@H]3C[C@@H](OC(F)(F)F)C3)o2)OC1)[C@@H]1C[C@H](O)c2cc(Cl)ccc2O1 (relative stereo) [Compound 170, (2S,4S)-6-chloro-4-hydroxy-N-[(3R,6S)-6-{5-[cis-3-(trifluoromethoxy)cyclobutyl]-1,3,4-oxadiazol-2-yl}oxan-3-yl]-3,4-dihydro-2H-1-benzopyran-2-carboxamide] | 250 to 500
12 | O=C(CO[C@H]1C[C@@H](OC(F)(F)F)C1)N[C@H]1C[C@H]2C[C@@H]1C[C@@H]2NC(=O)[C@H]1C[C@@H](O)c2cc(Cl)ccc2O1 (relative stereo) [Compound 210, (2R,4R)-6-chloro-4-hydroxy-N-[(1R*,2S*,4R*,5S*)-5-(2-{[cis-3-(trifluoromethoxy)cyclobutyl]oxy}acetamido)bicyclo[2.2.1]heptan-2-yl]-3,4-dihydro-2H-1-benzopyran-2-carboxamide] | < 10
13 | O=C(CO[C@H]1C[C@@H](OC(F)(F)F)C1)N[C@@H]1C[C@@H]2C[C@H]1C[C@H]2NC(=O)[C@H]1C[C@@H](O)c2cc(Cl)ccc2O1 (relative stereo) [Compound 211, (2R,4R)-6-chloro-4-hydroxy-N-[(1S*,2R*,4S*,5R*)-5-(2-{[cis-3-(trifluoromethoxy)cyclobutyl]oxy}acetamido)bicyclo[2.2.1]heptan-2-yl]-3,4-dihydro-2H-1-benzopyran-2-carboxamide] | < 10
14 | O=C(COc1ccc(Cl)c(F)c1)NC12CC(c3nnc([C@H]4C[C@@H](O)c5cc(Cl)ccc5O4)o3)(C1)C2 (relative stereo) [Compound 252, 2-(4-chloro-3-fluorophenoxy)-N-(3-{5-[(2R*,4R*)-6-chloro-4-hydroxy-3,4-dihydro-2H-1-benzopyran-2-yl]-1,3,4-oxadiazol-2-yl}bicyclo[1.1.1]pentan-1-yl)acetamide] | < 10
15 | O=C(COc1ccc(Cl)c(F)c1)NC12CC(c3nnc([C@@H]4C[C@H](O)c5cc(Cl)ccc5O4)o3)(C1)C2 (relative stereo) [Compound 253, 2-(4-chloro-3-fluorophenoxy)-N-(3-{5-[(2S*,4S*)-6-chloro-4-hydroxy-3,4-dihydro-2H-1-benzopyran-2-yl]-1,3,4-oxadiazol-2-yl}bicyclo[1.1.1]pentan-1-yl)acetamide] | 10 to 50
16 | O=C(NC12CC(c3nc(-c4ccc(Cl)c(F)c4)no3)(C1)C2)[C@@H]1C[C@H](O)c2cc(Cl)ccc2O1 (single isomer, unassigned) [Compound 199] | 50 to 250
17 | O=C(NC12CC(n3cnc(-c4ccc(C(F)(F)F)nc4)c3)(C1)C2)[C@@H]1C[C@H](O)c2cc(Cl)ccc2O1 (single isomer, unassigned) [Compound 200] | 50 to 250
18 | O=C(NC12CC(c3nc(-c4ccc(Cl)c(F)c4)no3)(C1)C2)[C@H]1C[C@@H](O)c2cc(Cl)ccc2O1 (single isomer, unassigned) [Compound 202] | < 10
19 | O=C(NC12CC(N3CCC(c4ccc(Cl)cc4)C3=O)(C1)C2)[C@H]1C[C@@H](O)c2cc(Cl)ccc2O1 (single isomer, unassigned) [Compound 225, (2R,4R)-6-chloro-N-{3-[(3R*)-3-(4-chlorophenyl)-2-oxopyrrolidin-1-yl]bicyclo[1.1.1]pentan-1-yl}-4-hydroxy-3,4-dihydro-2H-1-benzopyran-2-carboxamide] | 500 to 2000
20 | O=C(CO[C@H]1C[C@@H](OC(F)(F)F)C1)NC12CCC(NC(=O)[C@@H]3C[C@@H](O)c4cc(Cl)ccc4O3)(CC1)C[C@@H]2O (single isomer, unassigned) [Compound 279] | < 10
21 | O=C(CO[C@H]1C[C@@H](OC(F)(F)F)C1)NC12CC(NC(=O)[C@H]3C[C@H](O)c4cc(Cl)ccc4O3)(C1)C2 (single isomer, unassigned) [Compound 293] | < 10
22 | O=C1CC(C(=O)N[C@H]2C[C@H]3CC[C@@H](C2)N3CCCOc2ccc(Cl)cc2)Oc2ccc(Cl)cc21 (some centres unmarked) [Compound 101] | > 2000
23 | CN(C(=O)COc1ccc(Cl)c(F)c1)[C@H]1CC[C@H](NC(=O)[C@H]2C[C@@H](O)c3cc(Cl)ccc3O2)CC1 [Compound 102, (2R,4R)-6-chloro-N-[(1r,4R)-4-{[(4-chloro-3-fluorophenoxy)acetyl](methyl)amino}cyclohexyl]-4-hydroxy-3,4-dihydro-2H-1-benzopyran-2-carboxamide] | 10 to 50
24 | O=C(COc1ccc(Cl)c(F)c1)NC12CC(C(=O)NCC3CC(=O)c4cc(Cl)ccc4O3)(C1)C2 (centres unmarked) [Compound 103, 3-[2-(4-chloro-3-fluorophenoxy)acetamido]-N-[(6-chloro-4-oxo-3,4-dihydro-2H-1-benzopyran-2-yl)methyl]bicyclo[1.1.1]pentane-1-carboxamide] | 50 to 250
25 | O=C(N[C@H]1CC[C@H](C(=O)NCc2ccc(C(F)(F)F)cn2)CC1)[C@H]1C[C@@H](O)c2cc(Cl)ccc2O1 [Compound 105] | < 10
26 | O=C1C[C@H](C(=O)NC23CCC(C(=O)NCc4ccc(C(F)(F)F)cn4)(CC2)CC3)Oc2ccc(Cl)cc21 [Compound 106, (2R)-6-chloro-4-oxo-N-[4-({[5-(trifluoromethyl)pyridin-2-yl]methyl}carbamoyl)bicyclo[2.2.2]octan-1-yl]-3,4-dihydro-2H-1-benzopyran-2-carboxamide] | 10 to 50
